Data as given in publication PMC9897792, “Discovery of novel 2-(4-(benzyloxy)-5-(hydroxyl) phenyl) benzothiazole derivatives as multifunctional MAO-B inhibitors for the treatment of Parkinson’s disease” (Journal of Enzyme Inhibition and Medicinal Chemistry, 2023).
Several values for one entry are separate records, joined by “and”; a condition that tells them apart may be missing. Equal values may be shown once.

What was measured:
MAO-B [1] = target: T1, MAO-B (Homo sapiens, UniProt P27338); test: MAO-B inhibition, kynuramine method; assay type: biochemical
T1 sequence (P27338 1-520): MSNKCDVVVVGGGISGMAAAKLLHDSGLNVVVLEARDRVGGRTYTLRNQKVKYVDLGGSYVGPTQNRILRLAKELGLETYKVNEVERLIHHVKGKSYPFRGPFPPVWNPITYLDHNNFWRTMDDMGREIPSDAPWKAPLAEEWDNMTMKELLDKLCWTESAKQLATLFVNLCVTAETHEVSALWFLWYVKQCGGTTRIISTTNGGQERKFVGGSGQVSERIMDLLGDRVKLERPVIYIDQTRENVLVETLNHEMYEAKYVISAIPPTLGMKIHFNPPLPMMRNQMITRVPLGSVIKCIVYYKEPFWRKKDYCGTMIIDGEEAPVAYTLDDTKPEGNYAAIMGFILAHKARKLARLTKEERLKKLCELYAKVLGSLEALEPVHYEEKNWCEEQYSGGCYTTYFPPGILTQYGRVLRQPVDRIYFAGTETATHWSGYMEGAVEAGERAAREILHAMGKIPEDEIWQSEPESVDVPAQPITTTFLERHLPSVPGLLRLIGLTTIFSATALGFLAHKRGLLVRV

[2] = Oxygen radical absorbance capacity assay with fluorescein (ORAC-FL); settings: Trolox as standard
Protocol: Oxygen radical absorbance capacity assay which used fluorescein (ORAC-FL) was performed to measure the antioxidant activities of 2-(4-(benzyloxy)-5-(hydroxyl) phenyl) benzothiazole derivatives. […] It reflected that introduction of alkyl substituents on benzyloxy ring was more beneficial for the improvement of in vitro antioxidant activity. However, the position and number of substituents seem to have little influence on the antioxidative activities.
Test compounds solution (20 µL, 10 µM) and fluorescein solution (120 µL, 250 nM) were added to a black 96-wells plate in order. The mixture was incubated for 15 min at 37 °C. Then, AAPH solution (60 µL, 40 mM) was added through an automatic sampler. The fluorescence was recorded with excitation and emission wavelengths at 485 and 535 nm on the multifunctional enzyme marker (Thermo Scientific), and the area under the curve (AUC) was calculated automatically. Trolox was used as a reference, and the antioxidant activities of the compounds were expressed as Trolox equivalent. The test compound solution was replaced with PBS (20 µL) in blank well. The antioxidant activities of the test compounds were calculated by the formula: [(AUCsample − AUCblank)/(AUCtrolox − AUCblank)] × [(Trolox concentration/test sample concentration)].

MAO-B [3] = target: T1, MAO-B; test: Kinetic study of MAO-B inhibition (Lineweaver-Burk plots); assay type: biochemical
Protocol: Kinetic study[35]^,[36] was conducted to figure out the MAO-B inhibitory mechanism of 2-(4-(benzyloxy)-5-(hydroxyl) phenyl) benzothiazole derivatives, with 3h as the test compound. […] The graphical of the reciprocal Lineweaver-Burk plots was depicted in Figure 2(A).
The kinetic study of 3h was conducted by the method which is similar with the inhibition experiment of MAOs. Different concentrations of 3h (0.124, 0.062, and 0.031 µM) and kynuramine (15, 30, 60, and 90 µM) solutions were selected. The control experiment was performed without 3h. The method of data analysis has been described previously.

[4] = Metal-chelating study by UV spectra; assay type: physicochemical; settings: 75.0 μM in methanol; shifted from 335.5 nm
Protocol: Particularly, after the addition of FeSO4, maximum increase in absorption was detected. Besides, after the addition of CuCl2, maximum absorption peak shifted from 335.5 to 382.0 nm.
UV spectrum method was conducted to clarify the metal chelating ability of 2-(4-(benzyloxy)-5-(hydroxyl) phenyl) benzothiazole derivatives. Test compound solution (1.0 ml, 75 µM in methanol) and metal ion solution (1.0 ml, 75 µM in methanol) were added to a vial. The vial was placed at room temperature for 2 h. Then, the mixture was removed from the vial to a quartz cell. After transfer, the absorbance of the mixture at 200–800 nm was measured by using UV spectrophotometer (Shimadzu UV-1900i).

[5] = Parallel artificial membrane permeation assay for blood-brain barrier (PAMPA-BBB); assay type: in vitro ADME
Protocol: Porcine brain lipid solution (4 µL, 20 mg/mL in n-dodecane) was added dropwise to a filter membrane. Then the membrane was placed still at room temperature for 5 min to form an artificial biomembrane. When this bionics membrane was formed, test compound solution (350 µL, 100 µg/mL) was added to the donor well which was over the artificial biomembrane, and the mixture of PBS and Ethanol (200 µL, 70/30, v/v) was added to receptor well which is under the bionics membrane. Then, the “sandwich” was incubated at 25 °C for 18 h. After incubation, 150 µL solution in both donor well and receptor well were taken out and added to a 96-well quartz cuvette, and the absorbance of the mixture at 200–800 nm was measured. The Pe value was calculated according to the formula depicted by the literature.

[6] = tested on: TNF-α production in LPS-activated BV-2 microglia cells; test: LPS-induced TNF-α production in BV-2 cells (ELISA); assay type: cell-based; settings: Mus musculus, LPS 1.0 µg/mL, read-out: inhibition rate of LPS-induced TNF-α production
Protocol: ELISA method was carried out to detect the inhibitory effects of 3h on LPS-induced TNF-α production. As shown in Figure 8(B), the level of TNF-α expression was dramatically raised when BV-2 cells were exposed to LPS (1.0 µg/mL).
ELISA and Griess reaction methods were performed to detect the inhibitory effect of 3h on the release of TNF-α and NO in LPS-stimulated BV-2 cells[46]^,[47]. BV-2 cells in the logarithmic phase were seeded into 96-well cell culture plate, and these cells were incubated at 37 °C for 24 h at the atmosphere of 5% CO2. After incubation, the culture solution was replaced by fresh one (90 µL without serum), and test compound solution (10 µL) was added. After addition, the plate was incubated for 30 min, then LPS (10 µL, 1.0 µg/ml in PBS) was added to each well, and the mixture would be incubated for another 24 h at 37 °C. After the final incubation, the supernatants were taken out to measure the level of TNF-α and NO according to the procedures depicted on the kits (kits were purchased from Nanjing Jiancheng Bioengineering Institute).

[7] = tested on: ROS release in LPS-treated BV-2 cells; test: LPS-induced ROS release in BV-2 cells (DCFH-DA probe); assay type: cell-based; settings: Mus musculus, LPS 1.0 µg/mL, read-out: inhibition rate of LPS-induced ROS release
Protocol: The inhibitory effect of 3h on LPS-induced ROS release in BV-2 cells in vitro was detected by using 2′,7′-dichlorofluorescein diacetate (DCFH-DA) as probe to quantify the ROS level in LPS-treated BV-2 cells. Noticeably, the fluorescence intensity of control group was relatively low, indicating low level of ROS. […] The fluorescence values were further detected by using microplate reader (Figure 9(B)), and then the inhibition rates were calculated. […] BV-2 cells were incubated with test compound solution (10 µL) for 30 min, then LPS (10 µL, 1.0 µg/ml in PBS) was added to each well, and each well would be incubated for another 30 min at 37 °C. […] The fluorescence was measured with excitation and emission wavelengths at 488 and 525 nm on an inverted fluorescence microscope.

Oc1cc(OCc2ccc(F)cc2)ccc1-c1nc2ccccc2s1 [3h, 2-(Benzo[d]thiazol-2-yl)-5-((4-fluorobenzyl)oxy)phenol]
IC50 (MAO-B [1]): 62 ± 5 nM
ORAC [2]: 2.27 Trolox equivalents and 2.27 ± 0.08 Trolox equivalents
MAO-B inhibition pattern (MAO-B [3]; Lineweaver-Burk plots): competitive
Ki (MAO-B [3]; from slopes of Lineweaver-Burk plots vs. inhibitor concentration, kynuramine substrate, read-out: competitive inhibition constant (Ki)): 102 nM
maximum absorption peak after the addition of CuCl2 [4]: 382.0 nm
Prediction of penetration into CNS [5]: CNS+ (High BBB permeation predicted (CNS +) Pe> 3.44)
Pe ([5]; PBS/EtOH (70:30), mean ± SD of three independent experiments): 4.03e-06 cm/s
Papp at 18 h, 100 µg/mL ([5]; PBS/EtOH (70:30), mean ± SD of three independent experiments, read-out: Pe): 4.03 ± 0.14 ×10⁻⁶ cm/s
inhibition at 0.5 µM ([6]; 0.5 µM): 7.8%
inhibition at […] ([6]; 2.5 µM): 25.7%
inhibition at 10 µM ([6]; 10.0 µM): 52.5%
inhibition at […] ([7]; 2.5 µM): 19.8%
inhibition at 10 µM ([7]; 10.0 µM): 78%
